# Where two headings read alike, the source gives them in different places.
# Key:
# [1] = system: C. albicans (ATCC 90028); assay: Minimum inhibitory concentration, in vitro broth microdilution assay (CLSI M27-A2); assay type: cell-based, Candida albicans; conditions: for MIC: Candida albicans, ATCC90028, 48 h, read-out: Candida albicans MIC
# Procedure, shortened: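 CLSI M27-A2 broth microdilution: 11 two-fold DMSO dilutions into RPMI-1640+MOPS with 1×10^3–1×10^4 CFU/mL, 2 percent DMSO final. Incubated 2 days at 36° C; MIC from visual growth scoring, duplicates.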
# [2] = system: A. fumigatus; assay: A. fumigatus MIC at 100% growth inhibition (CLSI M38-A2); assay type: cell-based, Aspergillus fumigatus; conditions: for MIC: Aspergillus fumigatus, read-out: Aspergillus fumigatus MIC
# Description: A. fumigatus MICs were determined at 100% growth inhibition following CLSI guidelines at a concentration range of 8-0.0078 μg/mL (CLSI M38-A2).
# [3] = ATCC 90028, about 50% growth reduction, 2 days at 36° C., range tested 8-0.0078 μg/mL, values given as ranges
# [4] = 100% growth inhibition, range tested 8-0.0078 μg/mL, values given as ranges
Structure (SMILES),"MIC [1, 3]","MIC [2, 4]",further results
"CC(O)C(C)n1ncn(-c2ccc(N3CCN(c4ccc(-c5ccc(C(F)(F)[C@](O)(Cn6cnnn6)c6ccc(F)cc6F)nc5)cc4)CC3)cc2)c1=O (stereo partly drawn) [Example 75, 4-(4-(4-(4-(6-((R)-2-(2,4-difluorophenyl)-1,1-difluoro-2-hydroxy-3-(1H-tetrazol-1-yl)propyl)pyridin-3-yl)phenyl)piperazin-1-yl)phenyl)-2-(3-hydroxybutan-2-yl)-2,4-dihydro-3H-1,2,4-triazol-3-one]",0.0078 to 0.01 µg/mL,0.062 to 0.25 µg/mL,
"N#Cc1ccc2sc(N3CCN(c4ccc(-c5ccc(C(F)(F)[C@](O)(Cn6cnnn6)c6ccc(F)cc6F)nc5)cc4)CC3)nc2c1 [Example 76, (R)-2-(4-(4-(6-(2-(2,4-difluorophenyl)-1,1-difluoro-2-hydroxy-3-(1H-tetrazol-1-yl)propyl)pyridin-3-yl)phenyl)piperazin-1-yl) benzo [d] thiazole-5-carbonitrile]",0.0078 to 0.01 µg/mL,> 8 µg/mL,
"O[C@@](Cn1cnnn1)(c1ccc(F)cc1F)C(F)(F)c1ccc(-c2ccc(N3CCN(c4ccc5nc(CC(F)(F)F)[nH]c5c4)CC3)cc2)cn1 [Example 77, (R)-2-(2,4-difluorophenyl)-1,1-difluoro-3-(1H-tetrazol-1-yl)-1-(5-(4-(4-(2-(2,2,2-trifluoroethyl)-1H-benzo [d]imidazol-6-yl)piperazin-1-yl)phenyl)pyridin-2-yl) propan-2-ol]",0.01 to 0.1 µg/mL,0.25 to 1 µg/mL,
"CC(C)Cc1nc2ccc(N3CCN(c4ccc(-c5ccc(C(F)(F)[C@](O)(Cn6cnnn6)c6ccc(F)cc6F)nc5)cc4)CC3)cc2[nH]1 [Example 78, (R)-2-(2,4-difluorophenyl)-1,1-difluoro-1-(5-(4-(4-(2-isobutyl-1H-benzo [d]imidazol-6-yl)piperazin-1-yl)phenyl)pyridin-2-yl)-3-(1H-tetrazol-1-yl) propan-2-ol]",0.01 to 0.1 µg/mL,> 8 µg/mL,
"Cn1c(N2CCN(c3ccc(-c4ccc(C(F)(F)[C@](O)(Cn5cnnn5)c5ccc(F)cc5F)nc4)cc3)CC2)nc2ccc(C#N)cc21 [Example 79, (R)-2-(4-(4-(6-(2-(2,4-difluorophenyl)-1,1-difluoro-2-hydroxy-3-(1H-tetrazol-1-yl)propyl)pyridin-3-yl)phenyl)piperazin-1-yl)-1-methyl-1H-benzo [d] imidazole-6-carbonitrile]",0.0078 to 0.01 µg/mL,0.25 to 1 µg/mL,
"Cn1c(N2CCN(c3ccc(-c4ccc(C(F)(F)[C@](O)(Cn5cnnn5)c5ccc(F)cc5F)nc4)cc3)CC2)nc2cc(C#N)ccc21 [Example 80, (R)-2-(4-(4-(6-(2-(2,4-difluorophenyl)-1,1-difluoro-2-hydroxy-3-(1H-tetrazol-1-yl)propyl)pyridin-3-yl)phenyl)piperazin-1-yl)-1-methyl-1H-benzo [d] imidazole-5-carbonitrile]",0.0078 to 0.01 µg/mL,> 8 µg/mL,
"CC(C)(C)Cn1ncn(-c2ccc(N3CCN(c4ccc(-c5ccc(C(F)(F)[C@](O)(Cn6cnnn6)c6ccc(F)cc6F)nc5)cc4)CC3)cc2)c1=O [Example 81, (R)-4-(4-(4-(4-(6-(2-(2,4-difluorophenyl)-1,1-difluoro-2-hydroxy-3-(1H-tetrazol-1-yl)propyl)pyridin-3-yl)phenyl)piperazin-1-yl)phenyl)-2-neopentyl-2,4-dihydro-3H-1,2,4-triazol-3-one]",0.0078 to 0.01 µg/mL,0.25 to 1 µg/mL,
"CC[C@@H]([C@H](C)O)n1ncn(-c2ccc(N3CCN(c4ccc(-c5ccc(C(F)(F)[C@](O)(Cn6cnnn6)c6ccc(F)cc6F)nc5)cc4)CC3)cn2)c1=O [Example 82, 4-(5-(4-(4-(6-((R)-2-(2,4-difluorophenyl)-1,1-difluoro-2-hydroxy-3-(1H-tetrazol-1-yl)propyl)pyridin-3-yl)phenyl)piperazin-1-yl)pyridin-2-yl)-2-((2S,3S)-2-hydroxypentan-3-yl)-2,4-dihydro-3H-1,2,4-triazol-3-one]",,,"Candida albicans MIC [1, 3]: 0.010 to 0.10 µg/mL; Aspergillus fumigatus MIC [2, 4]: 0.062 to 0.25 µg/mL"
"CC[C@@H]([C@H](C)O)N(C)C(=O)c1ccc(N2CCN(c3ccc(-c4ccc(C(F)(F)[C@](O)(Cn5cnnn5)c5ccc(F)cc5F)nc4)cc3)CC2)cc1 [Example 83, 4-(4-(4-(6-((R)-2-(2,4-difluorophenyl)-1,1-difluoro-2-hydroxy-3-(1H-tetrazol-1-yl)propyl)pyridin-3-yl)phenyl)piperazin-1-yl)-N-((2S,3S)-2-hydroxypentan-3-yl)-N-methylbenzamide]",0.01 to 0.1 µg/mL,0.25 to 1 µg/mL,
"OC(c1cccc(N2CCN(c3ccc(-c4ccc(C(F)(F)[C@](O)(Cn5cnnn5)c5ccc(F)cc5F)nc4)cc3)CC2)c1)C(F)(F)F (stereo partly drawn) [Example 86, (2R)-2-(2,4-difluorophenyl)-1,1-difluoro-3-(1H-tetrazol-1-yl)-1-(5-(4-(4-(3-(2,2,2-trifluoro-1-hydroxyethyl)phenyl)piperazin-1-yl)phenyl)pyridin-2-yl) propan-2-ol]",0.0078 to 0.01 µg/mL,0.25 to 1 µg/mL,
"O=c1n(-c2ccc(N3CCN(c4ccc(-c5ccc(C(F)(F)[C@](O)(Cn6cnnn6)c6ccc(F)cc6F)nc5)cc4)CC3)cn2)cnn1CC(F)(F)F [Example 87, (R)-4-(5-(4-(4-(6-(2-(2,4-difluorophenyl)-1,1-difluoro-2-hydroxy-3-(1H-tetrazol-1-yl)propyl)pyridin-3-yl)phenyl)piperazin-1-yl)pyridin-2-yl)-2-(2,2,2-trifluoroethyl)-2,4-dihydro-3H-1,2,4-triazol-3-one]",0.0078 to 0.01 µg/mL,0.062 to 0.25 µg/mL,
"NC(CC(F)(F)F)C(=O)Nc1ccc(N2CCN(c3ccc(-c4ccc(C(F)(F)[C@](O)(Cn5cnnn5)c5ccc(F)cc5F)nc4)cc3)CC2)cc1 (stereo partly drawn) [Example 88, 2-amino-N-(4-(4-(4-(6-((R)-2-(2,4-difluorophenyl)-1,1-difluoro-2-hydroxy-3-(1H-tetrazol-1-yl)propyl)pyridin-3-yl)phenyl)piperazin-1-yl)phenyl)-4,4,4-trifluorobutanamide]",,,MIC [1]: 0.01 to 0.1 µg/mL; MIC [2]: > 8 µg/mL
"CCC(C(=O)Nc1ccc(N2CCN(c3ccc(-c4ccc(C(F)(F)[C@](O)(Cn5cnnn5)c5ccc(F)cc5F)nc4)cc3)CC2)cc1)C(C)O (stereo partly drawn) [Example 89, N-(4-(4-(4-(6-((R)-2-(2,4-difluorophenyl)-1,1-difluoro-2-hydroxy-3-(1H-tetrazol-1-yl)propyl)pyridin-3-yl)phenyl)piperazin-1-yl)phenyl)-2-ethyl-3-hydroxybutanamide]",0.01 to 0.1 µg/mL,0.25 to 1 µg/mL,
"CC(C)(C)Cc1nc2ccc(N3CCN(c4ccc(-c5ccc(C(F)(F)[C@](O)(Cn6cnnn6)c6ccc(F)cc6F)nc5)cc4)CC3)cc2[nH]1 [Example 90, (R)-2-(2,4-difluorophenyl)-1,1-difluoro-1-(5-(4-(4-(2-neopentyl-1H-benzo [d]imidazol-6-yl)piperazin-1-yl)phenyl)pyridin-2-yl)-3-(1H-tetrazol-1-yl) propan-2-ol]",0.0078 to 0.01 µg/mL,> 8 µg/mL,
"CC(C)n1ccn(-c2ccc(N3CCN(c4ccc(-c5ccc(C(F)(F)[C@](O)(Cn6cnnn6)c6ccc(F)cc6F)nc5)cc4)CC3)cc2)c1=O [Example 91, 1-(4-(4-(4-(6-(2-(2,4-difluorophenyl)-1,1-difluoro-2-hydroxy-3-(1H-tetrazol-1-yl)propyl)pyridin-3-yl)phenyl)piperazin-1-yl)phenyl)-3-isopropyl-1,3-dihydro-2H-imidazol-2-one]",0.0078 to 0.01 µg/mL,0.25 to 1 µg/mL,
"CC[C@@H]([C@H](C)O)n1cnc(-c2ccc(N3CCN(c4ccc(-c5ccc(C(F)(F)[C@](O)(Cn6cnnn6)c6ccc(F)cc6F)nc5)cc4)CC3)cc2)n1 [Example 92, (2S,3S)-3-(3-(4-(4-(4-(6-(2-(2,4-difluorophenyl)-1,1-difluoro-2-hydroxy-3-(1H-tetrazol-1-yl)propyl)pyridin-3-yl)phenyl)piperazin-1-yl)phenyl)-1H-1,2,4-triazol-1-yl) pentan-2-ol]",0.0078 to 0.01 µg/mL,0.25 to 1 µg/mL,
CCC(C(C)O)n1ncn(-c2ccc(N3CCN(c4ccc(-c5ccc(C(F)(F)[C@](O)(Cn6cnnn6)c6ccc(F)cc6F)nc5)cc4)CC3)cc2)c1=O (stereo partly shown) [Example 93],0.0078 to 0.01 µg/mL,0.25 to 1 µg/mL,
"OC(c1cn(-c2ccc(N3CCN(c4ccc(-c5ccc(C(F)(F)[C@](O)(Cn6cnnn6)c6ccc(F)cc6F)nc5)cc4)CC3)cc2)nn1)C(F)(F)F (stereo partly drawn) [Example 94, (2R)-2-(2,4-difluorophenyl)-1,1-difluoro-3-(1H-tetrazol-1-yl)-1-(5-(4-(4-(4-(4-(2,2,2-trifluoro-1-hydroxyethyl)-1H-1,2,3-triazol-1-yl)phenyl)piperazin-1-yl)phenyl)pyridin-2-yl) propan-2-ol]",0.0078 to 0.01 µg/mL,0.25 to 1 µg/mL,
"CC[C@@H]([C@H](C)O)n1cc(-c2ccc(N3CCN(c4ccc(-c5ccc(C(F)(F)[C@](O)(Cn6cnnn6)c6ccc(F)cc6F)nc5)cc4)CC3)cc2)nn1 [Example 95, (2S,3S)-3-(4-(4-(4-(4-(6-((R)-2-(2,4-difluorophenyl)-1,1-difluoro-2-hydroxy-3-(1H-tetrazol-1-yl)propyl)pyridin-3-yl)phenyl)piperazin-1-yl)phenyl)-1H-1,2,3-triazol-1-yl) pentan-2-ol]",0.0078 to 0.01 µg/mL,0.25 to 1 µg/mL,
O=c1n(CC(F)(F)F)ccn1-c1ccc(N2CCN(c3ccc(-c4ccc(C(F)(F)[C@](O)(Cn5cnnn5)c5ccc(F)cc5F)nc4)cc3)CC2)cc1 [Example 96],0.0078 to 0.01 µg/mL,0.25 to 1 µg/mL,

# Source: US10464922B2, “Metalloenzyme inhibitor compounds” (NQP 1598 LTD., priority 2015, dated 2019)
